According to US12005034B2 (ALGOTHERAPEUTIX, priority 2017, dated 2024):

What was measured:
TRPV1 = target: T1, TRPV1 (Mus musculus, UniProt Q704Y3); assay: Calcium mobilization in DRG neurons with TRPV1 antagonist or agonist; format: cell-based
T1 construct: calcium ion mobilization was investigated in primary cultures of mouse DRG neurons; endogenous in cells; host or cells: primary mouse DRG neurons
Protocol: (§1) For calcium mobilization measurements, 10 DRG cultures (two mice per culture) were washed with Hanks Balanced Salt Solution (HBSS, Thermo Fisher Scientific, Massachusetts, USA), and incubated in HBSS containing 1 μg/ml papain (Sigma Aldrich, Missouri, USA) and L-cysteine (pH 7.4, Sigma Aldrich) for 10 minutes at 37° C. […] Neurons were then mechanically dissociated. […] DRG neurons were incubated with HBSS containing 20 mM Hepes, […] fluo-4 acetoxymethyl (AM) ester (Thermo Fisher Scientific, Waltham, MA USA) and 0.02% pluronic acid for 30 min at 37° C. followed by an additional incubation for 30 min at room temperature. The medium was then discarded and replaced by HBSS. […] The effects of TRP channel agonists and antagonists on amitriptyline-induced calcium ion mobilization were then assessed as follows: neurons were incubated with either an antagonist for TRPV1 (10 μM AMG 9810, Sigma Aldrich) or an antagonist for TRPA1 (HCO30031; […] Sigma Aldrich). Neurons were imaged using an inverted microscope (Zeiss) and a 10×0.5 NA objective. […] Baseline fluorescence was determined for 0 to 10 seconds, and then fluorescence was measured from the 10th to the 65th second after the neurons were incubated with the drugs or controls. […] Variations in fluorescence intensity measured in each neuron were identified using Image J2 software.

TRPA1 = target: T2, TRPA1 (Mus musculus, UniProt Q8BLA8); assay: Calcium mobilization in DRG neurons with TRPA1 antagonist or agonist; format: cell-based
T2 construct: calcium ion mobilization was investigated in primary cultures of mouse DRG neurons; endogenous in cells; host or cells: primary mouse DRG neurons
T2 sequence (Q8BLA8 whole entry): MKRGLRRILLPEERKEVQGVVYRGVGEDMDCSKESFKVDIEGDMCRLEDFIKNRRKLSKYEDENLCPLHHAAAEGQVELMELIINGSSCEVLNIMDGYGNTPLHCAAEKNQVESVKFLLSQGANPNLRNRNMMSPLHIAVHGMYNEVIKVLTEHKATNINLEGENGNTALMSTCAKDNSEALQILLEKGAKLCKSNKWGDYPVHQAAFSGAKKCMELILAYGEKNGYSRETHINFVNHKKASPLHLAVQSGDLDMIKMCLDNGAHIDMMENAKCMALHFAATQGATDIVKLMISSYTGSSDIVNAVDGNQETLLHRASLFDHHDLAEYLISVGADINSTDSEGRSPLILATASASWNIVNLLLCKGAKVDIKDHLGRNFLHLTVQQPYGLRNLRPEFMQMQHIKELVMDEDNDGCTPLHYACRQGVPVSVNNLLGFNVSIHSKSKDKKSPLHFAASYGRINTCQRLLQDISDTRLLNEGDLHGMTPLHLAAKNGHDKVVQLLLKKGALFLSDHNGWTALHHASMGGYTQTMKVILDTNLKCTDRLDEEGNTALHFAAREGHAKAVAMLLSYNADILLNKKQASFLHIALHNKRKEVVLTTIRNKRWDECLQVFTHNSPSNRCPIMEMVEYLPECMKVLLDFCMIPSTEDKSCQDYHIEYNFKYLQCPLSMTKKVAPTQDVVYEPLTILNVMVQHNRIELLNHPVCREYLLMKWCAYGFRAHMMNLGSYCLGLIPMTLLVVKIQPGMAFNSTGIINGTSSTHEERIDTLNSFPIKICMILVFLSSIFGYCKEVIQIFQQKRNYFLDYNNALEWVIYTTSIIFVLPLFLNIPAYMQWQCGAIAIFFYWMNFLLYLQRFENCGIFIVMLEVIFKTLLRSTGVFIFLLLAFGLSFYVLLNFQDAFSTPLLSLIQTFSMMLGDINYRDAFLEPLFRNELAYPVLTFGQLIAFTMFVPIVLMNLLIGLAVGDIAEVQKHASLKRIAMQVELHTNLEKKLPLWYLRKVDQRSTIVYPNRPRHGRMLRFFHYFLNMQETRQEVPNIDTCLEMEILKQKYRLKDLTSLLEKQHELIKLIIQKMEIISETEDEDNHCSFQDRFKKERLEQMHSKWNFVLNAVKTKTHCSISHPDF
Protocol: as §1

[1] = Ex vivo study of percutaneous amitriptyline absorption, Frantz cell; format: in vitro ADME, human
Aβ fibers = assay: Ex vivo single unit recordings, skin-saphenous nerve preparation; format: cell-based, mouse
Protocol: (§2) Adult male mice were anesthetized with isoflurane (4%) and sacrificed by severing of the carotid arteries. Skin-saphenous nerve preparations and single-fiber recordings were carried out. The saphenous nerve and the skin of the hind limb were carefully dissected and placed in a custom-designed organ chamber containing warm oxygenated synthetic interstitial fluid (SIF). […] The saphenous nerve was placed in an adjacent recording chamber filled with mineral oil, gently teased, and groups of nerve fibers were placed on a gold recording electrode in order to isolate single-unit activity. […] Cambridge Electronic Design Limited, UK). Spikes were discriminated off-line using the Spike2 software (Cambridge Electronic Design Limited, UK) and analyzed individually to avoid false positives. The mechanically evoked activity of single saphenous nerve fibers was first obtained in response to von Frey hair stimulations (Friedrich-Alexander University, Erlangen, Germany). Once a receptive field had been characterized, a patch of skin was isolated from the surrounding bath using a plastic minichamber (inner diameter: 0.8 cm) continuously superfused with buffer at 31° C. The receptive field was then stimulated using von Frey mechanical probes mounted on the arm of a computer-controlled piezoelectric […]® controller; PI, Germany). Conduction velocity was determined by electrically stimulating (Tungsten microelectrode: 10 mm ext/60 mm PI; FHC, USA) identified receptive fields with square wave pulses (0.1-0.5 ms, 7-15 V). Axons were considered to be A-type when the conduction velocity was over 4 m/s. Fibers with a conduction velocity below 1 m/s were classified as C fibers.

C fibers = assay: as above; format: cell-based, mouse
Protocol: as §2

Aδ fibers = assay: as above; format: cell-based; settings: Mus musculus, 10 min
Protocol: (§3) Adult male mice were anesthetized with isoflurane (4%) and sacrificed by severing of the carotid arteries. Skin-saphenous nerve preparations and single-fiber recordings were carried out. The saphenous nerve and the skin of the hind limb were carefully dissected and placed in a custom-designed organ chamber containing warm oxygenated synthetic interstitial fluid (SIF). […] The saphenous nerve was placed in an adjacent recording chamber filled with mineral oil, gently teased, and groups of nerve fibers were placed on a gold recording electrode in order to isolate single-unit activity. […] Cambridge Electronic Design Limited, UK). Spikes were discriminated off-line using the Spike2 software (Cambridge Electronic Design Limited, UK) and analyzed individually to avoid false positives. The mechanically evoked activity of single saphenous nerve fibers was first obtained in response to von Frey hair stimulations (Friedrich-Alexander University, Erlangen, Germany). Once a receptive field had been characterized, a patch of skin was isolated from the surrounding bath using a plastic minichamber (inner diameter: 0.8 cm) continuously superfused with buffer at 31° C. […] Conduction velocity was determined by electrically stimulating (Tungsten microelectrode: 10 mm ext/60 mm PI; FHC, USA) identified receptive fields with square wave pulses (0.1-0.5 ms, 7-15 V). […]

C, Aδ and Aβ fibers = assay: Ex vivo single unit recordings, skin-saphenous nerve preparation, all fiber types; format: cell-based, mouse
Protocol: as §3

Nav1.8 = target: T3, Nav1.8 (Mus musculus, UniProt Q6QIY3); assay: Whole-cell patch-clamp of sodium currents in Nav1.9-/- DRG neurons; format: cell-based; settings: holding potential −100 mV, cumulative 1 μM-1 mM; read-out: IC50, block of Nav1.8 current
T3 construct: The Nav1.8 current was recorded in Nav1.9−/− DRG neurons; endogenous in cells; host or cells: primary DRG neurons from Nav1.9-/- mice (C57Bl/6J background)

hNav1.7 = target: T4, hNav1.7 (Homo sapiens, UniProt Q15858); assay: Whole-cell patch-clamp of sodium currents in hNav1.7-transfected HEK293T cells; format: cell-based; settings: holding potential −80 mV, cumulative 1 μM-1 mM; read-out: IC50, block of Nav1.7 current
T4 construct: expressed in transfected cells; host or cells: HEK293T
Protocol: Human embryonic kidney 293T (HEK293T) cells were grown in DMEM containing 4.5 mg/ml glucose, 10% FBS, 50 units/ml penicillin and 50 μg/ml streptomycin. Cells were plated onto 12-mm round glass poly-D-lysine-coated coverslips placed in 24-well plates and transfected using lipofectamine 2000 (Invitrogen) according to the manufacturer's instructions. hNav1.7 and GFP plasmids were co-transfected at a concentration of 600 and 100 ng/ml, respectively. Experiments were conducted on cells 24-48 hours post-transfection.
(§4) Patch clamp recordings were made using borosilicate electrodes (Harvard Apparatus, Holliston, Massachusetts, USA) with a resistance of 2-3 MΩ when filled with an intracellular solution consisting of (in mM): 130 CsCl, 10 Hepes, 8 NaCl, 0.4 NaGTP, 4 MgATP, 1 MgCl2, 1 CaCl2 and 10 EGTA (adjusted to pH 7.3 with CsOH, ˜300 mOsm/L). […] Sodium currents were recorded individually. […] The Nav1.8 current was recorded in Nav1.9−/− DRG neurons, whereas the Nav1.9 current was recorded in Nav1.8−/− DRG neurons. […] Fast activating/inactivating TTX-sensitive Na+ currents (Nav1.1 and Nav1.6) in putative non-nociceptors were recorded in wild-type DRG neurons that had large cell membrane capacitance (Cm>60 pF) and lacked any TTX-resistant Na+ current components. […]

Nav1.9 = target: T5, Nav1.9 (Mus musculus, UniProt Q9R053); assay: Whole-cell patch-clamp of sodium currents in Nav1.8-/- DRG neurons; format: cell-based; settings: holding potential −100 mV, cumulative 1 μM-1 mM; read-out: IC50, block of Nav1.9 current
T5 construct: the Nav1.9 current was recorded in Nav1.8−/− DRG neurons; endogenous in cells; host or cells: primary DRG neurons from Nav1.8-/- mice (C57Bl/6J background)
T5 sequence (Q9R053 whole entry): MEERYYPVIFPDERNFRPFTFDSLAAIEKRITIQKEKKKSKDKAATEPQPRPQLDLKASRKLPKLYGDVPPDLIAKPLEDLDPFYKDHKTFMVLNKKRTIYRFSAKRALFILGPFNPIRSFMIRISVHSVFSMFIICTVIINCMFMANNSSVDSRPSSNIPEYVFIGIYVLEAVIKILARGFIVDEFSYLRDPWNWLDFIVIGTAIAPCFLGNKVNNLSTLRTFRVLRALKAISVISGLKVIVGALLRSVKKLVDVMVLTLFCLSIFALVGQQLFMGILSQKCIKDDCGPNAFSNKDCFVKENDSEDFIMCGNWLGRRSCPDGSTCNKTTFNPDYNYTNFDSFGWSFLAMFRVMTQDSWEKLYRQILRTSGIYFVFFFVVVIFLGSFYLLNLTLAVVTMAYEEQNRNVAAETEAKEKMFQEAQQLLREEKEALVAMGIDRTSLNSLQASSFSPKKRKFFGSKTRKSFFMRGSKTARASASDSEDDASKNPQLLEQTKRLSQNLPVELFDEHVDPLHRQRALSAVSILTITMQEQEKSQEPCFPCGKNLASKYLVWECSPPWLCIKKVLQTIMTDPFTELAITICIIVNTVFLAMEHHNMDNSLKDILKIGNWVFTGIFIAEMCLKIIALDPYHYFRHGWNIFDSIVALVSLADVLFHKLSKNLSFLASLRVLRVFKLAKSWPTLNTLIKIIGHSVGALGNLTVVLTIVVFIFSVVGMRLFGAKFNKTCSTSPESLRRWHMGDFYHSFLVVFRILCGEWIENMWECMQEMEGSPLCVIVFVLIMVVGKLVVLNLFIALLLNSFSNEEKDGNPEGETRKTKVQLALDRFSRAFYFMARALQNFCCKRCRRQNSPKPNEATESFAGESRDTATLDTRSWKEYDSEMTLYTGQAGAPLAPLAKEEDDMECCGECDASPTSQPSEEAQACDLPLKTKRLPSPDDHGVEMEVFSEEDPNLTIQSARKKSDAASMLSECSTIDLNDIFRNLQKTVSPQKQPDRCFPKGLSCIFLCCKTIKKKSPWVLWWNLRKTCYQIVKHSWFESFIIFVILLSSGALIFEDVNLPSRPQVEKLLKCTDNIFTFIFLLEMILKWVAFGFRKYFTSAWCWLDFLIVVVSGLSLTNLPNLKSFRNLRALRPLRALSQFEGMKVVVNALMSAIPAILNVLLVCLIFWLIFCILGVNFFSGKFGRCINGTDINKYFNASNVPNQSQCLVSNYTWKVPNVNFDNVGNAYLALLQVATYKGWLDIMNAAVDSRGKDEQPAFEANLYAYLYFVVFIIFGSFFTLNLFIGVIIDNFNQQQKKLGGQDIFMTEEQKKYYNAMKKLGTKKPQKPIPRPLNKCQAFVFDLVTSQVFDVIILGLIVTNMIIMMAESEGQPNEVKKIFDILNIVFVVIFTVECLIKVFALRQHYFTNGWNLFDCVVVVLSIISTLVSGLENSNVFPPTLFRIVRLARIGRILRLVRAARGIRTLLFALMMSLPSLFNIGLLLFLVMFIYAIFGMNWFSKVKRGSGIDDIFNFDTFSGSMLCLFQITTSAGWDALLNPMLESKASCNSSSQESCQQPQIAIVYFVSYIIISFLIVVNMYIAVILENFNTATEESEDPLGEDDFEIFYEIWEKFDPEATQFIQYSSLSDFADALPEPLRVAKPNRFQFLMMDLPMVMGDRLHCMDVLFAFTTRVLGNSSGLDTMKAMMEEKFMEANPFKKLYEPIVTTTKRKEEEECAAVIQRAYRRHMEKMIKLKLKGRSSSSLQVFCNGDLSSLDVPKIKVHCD
Protocol: (§5) Cultures of DRG were prepared from male mice anesthetized with isoflurane (4%, Piramal Critical Care) and sacrificed by severing of the carotid arteries. Cultures of dissociated DRG neurons were established from thoracolumbar DRG.
(§6) DRG for whole-cell patch-clamp recordings were incubated in Hanks balance salt solution (Invitrogen, France) containing 2 mg/ml of collagenase IA (Sigma, France) for approximately 45 minutes at 37° C. DRG were washed at least 10 times and then triturated with a fired polished glass Pasteur pipette. […]
as §4

[2] = tested on: TTX-S Nav channels (Nav1.1 and Nav1.6); assay: Whole-cell patch-clamp of TTX-sensitive sodium currents in wild-type DRG neurons; format: cell-based, mouse; settings: read-out: IC50, block of TTX-S Nav currents; holding potential −80 mV, touch mechanoreceptors
Protocol: as §5, §6, §4

[3] = tested on: Nav channels in sensory neurons; assay: Whole-cell patch-clamp of sodium currents, all Nav channels tested; format: cell-based, mouse; settings: 100 μM
Source text: Patch clamp recordings were made using borosilicate electrodes (Harvard Apparatus, Holliston, Massachusetts, USA) with a resistance of 2-3 MΩ when filled with an intracellular solution consisting of (in mM): 130 CsCl, 10 Hepes, 8 NaCl, 0.4 NaGTP, 4 MgATP, 1 MgCl2, 1 CaCl2 and 10 EGTA (adjusted to pH 7.3 with CsOH, ˜300 mOsm/L). […] Voltage-gated sodium ion currents were leak-subtracted using a P/6 protocol and voltage errors were minimized using 75-80% series resistance compensation. Cultured cells were perfused with the bath solution at flow rate of 5 mL/min. Recordings were made at room temperature (20-24° C.) using an Axopatch 200B amplifier (Axon Instruments, Boston, Massachusetts, USA), filtered at 1-2 kHz, and digitally sampled at 5-20 kHz. Sodium currents were recorded individually. […]. The Nav1.8 current was recorded in Nav1.9−/− DRG neurons, whereas the Nav1.9 current was recorded in Nav1.8−/− DRG neurons. Nav1.8−/− and Nav1.9−/− mice were generated from a C57B1/6J background. Fast activating/inactivating TTX-sensitive Na+ currents (Nav1.1 and Nav1.6) in putative non-nociceptors were recorded in wild-type DRG neurons that had large cell membrane capacitance (Cm>60 pF) and lacked any TTX-resistant Na+ current components. Nav1.7 recordings were made using the transfected HEK cells.

mouse DRG neurons = assay: Calcium mobilization in DRG neurons, fluo-4 calcium imaging; format: cell-based
Protocol: For calcium mobilization measurements, 10 DRG cultures (two mice per culture) were washed with Hanks Balanced Salt Solution (HBSS, Thermo Fisher Scientific, Massachusetts, USA), and incubated in HBSS containing 1 μg/ml papain (Sigma Aldrich, Missouri, USA) and L-cysteine (pH 7.4, Sigma Aldrich) for 10 minutes at 37° C. […] Neurons were then mechanically dissociated. […] DRG neurons were incubated with HBSS containing 20 mM Hepes, […] fluo-4 acetoxymethyl (AM) ester (Thermo Fisher Scientific, Waltham, MA USA) and 0.02% pluronic acid for 30 min at 37° C. followed by an additional incubation for 30 min at room temperature. The medium was then discarded and replaced by HBSS. […] The effects of TRP channel agonists and antagonists on amitriptyline-induced calcium ion mobilization were then assessed as follows: neurons were incubated with either an antagonist for TRPV1 (10 μM AMG 9810, Sigma Aldrich) or an antagonist for TRPA1 (HCO30031; […] Sigma Aldrich). Neurons were imaged using an inverted microscope (Zeiss) and a 10×0.5 NA objective. Images were acquired using a CCD camera (Zeiss) and Zen software (Zeiss). Acquisition parameters were kept constant during each experiment. Kinetic analysis was performed using 85 recordings (one per second). Baseline fluorescence was determined for 0 to 10 seconds, and then fluorescence was measured from the 10th to the 65th second after the neurons were incubated with the drugs or controls. At 65 seconds, 50 mM KCl was added to the cells in order to allow discrimination between neurons and glial cells. Variations in fluorescence intensity measured in each neuron were identified using Image J2 software.

[4] = in vivo; cited from earlier work
neuropathic pain = settings: topical, maximum dose used 5%; cited from earlier work
[5] = Mus musculus, 10 min, skin superfusion 10 min, 10-100 μM, read-out: IC50, inhibition of mechanically induced firing
[6] = Mus musculus, 10 min, 100 μM, 10 min application to the skin preparation, read-out: Mean inhibition of evoked firing

T1 sequence (Q704Y3 whole entry): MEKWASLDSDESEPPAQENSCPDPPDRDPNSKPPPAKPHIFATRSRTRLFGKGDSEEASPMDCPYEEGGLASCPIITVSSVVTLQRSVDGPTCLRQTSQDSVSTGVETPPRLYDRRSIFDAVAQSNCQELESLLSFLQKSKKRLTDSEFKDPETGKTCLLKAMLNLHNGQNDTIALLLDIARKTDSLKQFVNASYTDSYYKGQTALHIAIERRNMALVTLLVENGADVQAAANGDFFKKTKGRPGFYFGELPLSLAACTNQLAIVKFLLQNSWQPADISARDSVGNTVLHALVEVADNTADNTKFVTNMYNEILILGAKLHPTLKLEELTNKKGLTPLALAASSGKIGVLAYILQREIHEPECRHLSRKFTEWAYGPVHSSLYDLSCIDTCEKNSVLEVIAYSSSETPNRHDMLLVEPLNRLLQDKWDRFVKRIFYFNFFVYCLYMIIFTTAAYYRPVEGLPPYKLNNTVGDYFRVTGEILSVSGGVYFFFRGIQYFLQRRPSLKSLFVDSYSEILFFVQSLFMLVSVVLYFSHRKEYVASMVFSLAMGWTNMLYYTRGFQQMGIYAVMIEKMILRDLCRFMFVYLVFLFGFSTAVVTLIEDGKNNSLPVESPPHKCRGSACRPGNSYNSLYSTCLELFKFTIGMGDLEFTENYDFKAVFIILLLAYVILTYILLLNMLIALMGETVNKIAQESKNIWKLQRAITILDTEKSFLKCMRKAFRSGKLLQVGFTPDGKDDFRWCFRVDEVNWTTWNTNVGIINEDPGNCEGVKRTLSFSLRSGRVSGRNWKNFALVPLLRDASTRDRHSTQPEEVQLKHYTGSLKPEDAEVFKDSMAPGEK

CC(C)(C)c1ccc(/C=C/C(=O)Nc2ccc3c(c2)OCCO3)cc1 [AMG9810]
effect of antagonist pretreatment on amitriptyline-induced calcium ion mobilization (TRPV1; 5-min pretreatment, 10 μM TRPV1 antagonist): had no effect

CC(C)c1ccc(NC(=O)Cn2cnc3c2c(=O)n(C)c(=O)n3C)cc1 [HC30301]
effect of antagonist pretreatment on amitriptyline-induced calcium ion mobilization (TRPA1; 5-min pretreatment, excess of TRPA1 antagonist): led to inhibition of amitriptyline-induced calcium ion mobilization

CN(C)CCC=C1c2ccccc2CCc2ccccc21 [amitriptyline, Amitriptyline]
amitriptyline bioavailability ([1]; 10 mg of 10% cream per cell, 16 hours): 22.5 µg | amitriptyline present in the epidermis ([1]; compared with dermis, 10% cream, 16 hours): 26% | amitriptyline present in the dermis ([1]; compared with epidermis, 10% cream, 16 hours): Approximately 74% | passage into the bloodstream ([1]; relative to the amount of amitriptyline present in the composition): less than 0.1% | discharge of a low-threshold Aβ mechanoreceptor, representative recording (Aβ fibers; 1 mN stimulus, 100 μM, 5 and 10 min superfusion): inhibition was not complete | reversal of inhibition after washout, Aβ mechanoreceptor (Aβ fibers; 30 min washout after 100 μM): partially reversed | IC50 (Aβ fibers; [5]): ~26 µM | inhibition at 100 µM (Aβ fibers; [6]): 82.5% | firing in a C-type mechanonociceptor fiber, representative recording (C fibers; 11.4 mN stimulation, 100 μM, 10 min superfusion): Full inhibition of firing | IC50 (C fibers; [5]): ~15 µM | inhibition at 100 µM (C fibers; [6]): 95.6% | IC50 (Aδ fibers; skin superfusion 10 min, 10-100 μM, read-out: IC50, inhibition of mechanically induced firing): ~16 µM | inhibition at 100 µM (Aδ fibers; 100 μM, 10 min application to the skin preparation, read-out: Mean inhibition of evoked firing): 87.5% | time of washout to reversal of inhibition (C, Aδ and Aβ fibers): 30 to 35 min | IC50 (Nav1.8): 4.25 ± 0.4 µM | IC50 (hNav1.7): 4.25 ± 0.4 µM | IC50 (Nav1.9): 15.6 ± 0.5 µM | IC50 [2]: 62 ± 0.5 µM | time to reversal of inhibition [3]: ≤ 20 ± 2 min | time to increase in intracellular calcium ions (mouse DRG neurons; 0.1 mM): ≤ 10 s | time to plateau of intracellular calcium ion amplitude curve (mouse DRG neurons; 0.1 mM): around 20 seconds | IC50 (mouse DRG neurons; Mus musculus, DRG neuron, 0.01 mM-1 mM, read-out: IC50, percentage of DRG neurons displaying intracellular calcium mobilization): 50 µM | potentiation of DRG neuron activation induced by TRPA1 agonist (TRPA1; 0.01 mM, 5-min incubation, 50 μM AITC): did not potentiate | potentiation of DRG neuron activation induced by TRPV1 agonist (TRPV1; 0.01 mM, 5-min incubation, 62 nM capsaicin): did not potentiate | plasma half-life [4]: 9 to 36 h | efficacy in the treatment of neuropathic pain (neuropathic pain): not efficacious
